Laboratory results from patent US7018989B2, “Chemical compounds” (University College Cardiff Consultants, LTD, priority 1995, dated 2006).
Where a name gives a salt, the structure may show the parent alone. Read-outs that look alike come from different tables or passages of the source.

What was measured:
HIV-1 = assay: microbe, parasite or virus in culture; details: read-out: HIV1 CEM: EC50 for inhibition of HIV-1 in CEM cells
Protocol: (§1) Cells were infected with HIV-1 as previously described [Balzarini et al. AIDS (1991), 5, 21–28]. Briefly, 5×10^5 cells per milliliter were infected with HIV-1 or HIV-2 at 100 CCID50 (50% cell culture infective dose) per milliliter of cell suspension. Then 100 μL of the infected cell suspension was transferred to microtiter plate wells and mixed with 100 μL of the appropriate dilutions of the test compounds. After 4 days giant cell formation was recorded microscopically in the HIV-infected cell cultures [CEM], and after 5 days the number of viable cells was determined by trypan blue staining of the HIV-infected cell cultures [MT4].
(§2) The data columns are, in order: • HIV1 MT4: EC50 in μM for inhibition of HIV-1 in MT4 cells. • HIV2 MT4: EC50 in μM for inhibition of HIV-2 in MT4 cells. • CC50 MT4: CC50 in μM for toxicity to MT-4 cells. • HIV1 CEM: EC50 in μM for inhibition of HIV-1 in CEM cells. • HIV2 CEM: EC50 in μM for inhibition of HIV-2 in CEM cells. • HIV2 CEM-TK-: EC50 in μM for inhibition of HIV-2 in CEM/TK^− cells. • CC50 CEM: CC50 in μM for toxicity to CEM cells. • EC50 MSV: EC50 in μM for inhibition of MSV • MCC MSV: Minimum cytotoxic concentration in MSV assay

HIV-2 [1] = assay: Inhibition of HIV-2 in CEM cells (giant cell formation); format: cell-based; details: read-out: HIV2 CEM: EC50 for inhibition of HIV-2 in CEM cells
Protocol: as §1, §2

HIV-2 [2] = assay: Inhibition of HIV-2 in CEM/TK- cells; format: cell-based
Protocol: as §1, §2

[3] = Table 6, mean of two or more repeat experiments
[4] = Table 6, mean of two or more repeat experiments, read-out: HIV2 CEM-TK-: EC50 for inhibition of HIV-2 in CEM/TK^− cells
[5] = CEM/TK- cells, HIV-2, read-out: HIV2 CEM-TK-: EC50 for inhibition of HIV-2 in CEM/TK- cells

| SMILES | EC50 (HIV-1; [3]) | EC50 (HIV-2 [1]; [3]) | EC50 (HIV-2 [2]; [4]) | also measured |
| --- | --- | --- | --- | --- |
| Cc1cn(C2C=CC(COP(=O)(NC(C)C(=O)Oc3ccc4ccccc4c3)Oc3ccccc3)O2)c(=O)[nH]c1=O (stereo not drawn) [Compound 1227] | < 0.08 µM | – | – | – |
| Cc1cn(C2C=CC(COP(=O)(NC(C)C(=O)Oc3cccc4ccccc34)Oc3ccccc3)O2)c(=O)[nH]c1=O (stereo not drawn) [Compound 1226] | < 0.08 µM | – | – | – |
| Cc1cn(C2C=CC(COP(=O)(O)OCC(Cl)(Cl)Cl)O2)c(=O)[nH]c1=O (stereo not drawn) [Compound 407] | – | 0.5 µM | 86 µM | – |
| Cc1cn([C@H]2C=C[C@@H](COP(=O)(O)NC(Cc3ccccc3)C(=O)O)O2)c(=O)[nH]c1=O (stereo partly drawn) [Compound 1187, 2′,3′-dideoxy-2′,3′-didehydrothymidine 5′-(phenylalaninyl phosphate)] | 3.5 µM | – | – | – |
| COC(=O)CCC(NP(=O)(OCC1C=CC(n2cc(C)c(=O)[nH]c2=O)O1)Oc1ccccc1)C(=O)OC (stereo not drawn) [Compound 1196, 2′,3′-Dideoxy-2′,3′-didehydrothymidine-5′-(phenyldimethoxyglutaminyl phosphoramidate] | 1.2 µM | – | – | – |
| Cc1cn(C2C=CC(COP(=O)(O)NC(CC(C)C)C(=O)O)O2)c(=O)[nH]c1=O (stereo not drawn) [Compound 1192, 2′,3′-dideoxy-2′,3′-didehydrothymidine 5′-(leucinyl phosphate)] | 1.4 µM | – | – | – |
| Cc1cn(C2C=CC(COP(=O)(Oc3ccccc3)N3CCCC3C(=O)O)O2)c(=O)[nH]c1=O (stereo not drawn) [Compound 1194, 2′,3′-dideoxy-2′,3′-didehydrothymidine 5′-(phenylprolinyl phosphate)] | 6 µM | – | – | – |
| COC(=O)C(C)NP(=O)(OCC1C=CC(n2ccc(=O)[nH]c2=O)O1)Oc1cccc(C(F)(F)F)c1 (stereo not drawn) [Compound 547] | > 3520 µM | > 7 µM | > 35 µM | – |
| COC(=O)C(CCSC)NP(=O)(OCC1C=CC(n2cc(C)c(=O)[nH]c2=O)O1)OCC(Cl)(Cl)Cl (stereo not drawn) [Compound 345] | 8 µM | 11 µM | 10 µM | – |
| CCCCNP(=O)(OCC1OC(n2cc(C)c(=O)[nH]c2=O)CC1N=[N+]=[N-])Oc1ccccc1 (stereo not drawn) [Cpd 659] | – | – | – | EC50 (HIV-1; CEM cells, HIV-1): > 42 µM; EC50 (HIV-2 [1]; CEM cells, HIV-2): > 42 µM; EC50 (HIV-2 [2]; [5]): > 42 µM |
| O=c1ccn([C@H]2C=C[C@@H](CO)O2)c(=O)[nH]1 [Compound 446, reference compound] | > 95 µM | > 95 µM | > 95 µM | – |
| COC(=O)C(C)NP(=O)(OCC1C=CC(n2ccc(=O)[nH]c2=O)O1)Oc1ccccc1 (stereo not drawn) [Compound 558] | > 44 µM | > 44 µM | > 44 µM | – |
| Cc1cn([C@H]2C=C[C@@H](COP(=O)(O)OC(=O)CCCN)O2)c(=O)[nH]c1=O [Compound 1224, 2′,3′-Dideoxy-2′,3′-didehydrothymidine-5′(γ-aminobutylryl) phosphate ammonium salt] | 1 µM | – | – | – |
| CCCOP(=O)(OCC1C=CC(n2cc(C)c(=O)[nH]c2=O)O1)OCC(Cl)(Cl)Cl (stereo not drawn) [Compound 404] | > 209 µM | > 209 µM | > 209 µM | – |
| Cc1cn(C2C=CC(CNP(=O)(OC(C)C)OC(C)C)O2)c(=O)[nH]c1=O (stereo not drawn) [Compound 479] | > 258 µM | > 258 µM | > 258 µM | – |
| COC(=O)C(C)NP(=O)(OCC1CCC(n2cc(C)c(=O)[nH]c2=O)O1)Oc1ccccc1 (stereo not drawn) [Cpd 1225] | – | – | – | EC50 (HIV-1; CEM cells, HIV-1): 1.2 µM |
| COC(=O)CCNP(=O)(OCC1C=CC(n2cc(C)c(=O)[nH]c2=O)O1)Oc1ccccc1 (stereo not drawn) [Compound 1197, 2′,3′-Dideoxy-2′,3′-didhydrothymidine-5′-(phenylmethoxy-B-alaninyl) phosphate] | > 250 µM | – | – | – |
| Cc1cn(C2C=CC(COP(=O)(O)NC(C(=O)O)C(C)C)O2)c(=O)[nH]c1=O (stereo not drawn) [Compound 1190, 2′,3′-dideoxy-2′,3′-didehydrothymidine 5′-(valinyl phosphate)] | 0.7 µM | – | – | – |
| CCOP(=O)(OCC)OCC1C=CC(n2ccc(=O)[nH]c2=O)O1 (stereo not drawn) [Compound 551] | > 58 µM | > 58 µM | > 58 µM | – |
| CCC(NP(=O)(OCC1C=CC(n2cc(C)c(=O)[nH]c2=O)O1)Oc1ccccc1)C(=O)OC (stereo not drawn) [Compound 1198, 2′,3′-Dideoxy-2′,3′-didehydrothymidine-5′-(phenylmethoxy-α-aminobutylryl) phosphate] | > 250 µM | – | – | – |
| O=c1ccn(C2C=CC(COP(=O)(OCC(Cl)(Cl)Cl)OCC(Cl)(Cl)Cl)O2)c(=O)[nH]1 (stereo not drawn) [Compound 562] | > 36 µM | > 36 µM | > 36 µM | – |

| SMILES | EC50 (HIV-1; [3]) | EC50 (HIV-2 [1]; [3]) | EC50 (HIV-2 [2]; [4]) | also measured |
| --- | --- | --- | --- | --- |
| Cc1cn([C@H]2C=C[C@@H](CO)O2)c(=O)[nH]c1=O [Compound 268, reference compound] | 0.24 µM | 1.2 µM | > 100 µM | – |
| COC(=O)C(C)(C)NP(=O)(OCC1C=CC(n2cc(C)c(=O)[nH]c2=O)O1)Oc1ccccc1 (stereo not drawn) [Compound 1200, 2′,3′-Dideoxy-2′,3′-didehydrothymidine-5′-(phenylmethoxy-2-aminoisobutylryl) phosphate] | 0.12 µM | – | – | – |
| CCCCNP(=O)(OCC1C=CC(n2cc(C)c(=O)[nH]c2=O)O1)OCC(F)(F)F (stereo not drawn) [Compound 504] | 73 µM | 116 µM | ≥ 226 µM | – |
| Cc1cn([C@H]2C=C[C@@H](COP(=O)(N[C@@H](C)C(=O)OCC(C)(C)C)Oc3ccccc3)O2)c(=O)[nH]c1=O (stereo partly drawn) [Compound 1219] | < 0.08 µM | – | – | – |
| [N-]=[N+]=NC1CC(n2ccc(=O)[nH]c2=O)OC1CO (stereo not drawn) [Cpd 569] | – | – | – | EC50 (HIV-1; CEM cells, HIV-1): > 400 µM; EC50 (HIV-2 [1]; CEM cells, HIV-2): > 400 µM; EC50 (HIV-2 [2]; [5]): > 400 µM |
| CCCCNP(=O)(OCC1C=CC(n2cc(C)c(=O)[nH]c2=O)O1)OCC(Cl)(Cl)Cl (stereo not drawn) [Compound 402] | 118 µM | > 204 µM | 161 µM | – |
| CCCCCCCCCCCCNP(=O)(OCC1OC(n2cc(C)c(=O)[nH]c2=O)CC1N=[N+]=[N-])Oc1ccccc1 (stereo not drawn) [Cpd 661] | – | – | – | EC50 (HIV-1; CEM cells, HIV-1): > 7 µM; EC50 (HIV-2 [1]; CEM cells, HIV-2): > 7 µM; EC50 (HIV-2 [2]; [5]): > 7 µM |
| CCCCCOC(=O)C(C)NP(=O)(OCC1C=CC(n2cc(C)c(=O)[nH]c2=O)O1)Oc1ccccc1 (stereo not drawn) [Compound 1218] | < 0.08 µM | – | – | – |
| CCCNP(=O)(OCC)OCC1C=CC(n2cc(C)c(=O)[nH]c2=O)O1 (stereo not drawn) [Compound 563] | > 268 µM | > 268 µM | > 268 µM | – |
| COC(=O)C(C)NP(=O)(OCC1OC(n2ccc(=O)[nH]c2=O)CC1N=[N+]=[N-])Oc1ccccc1 (stereo not drawn) [Cpd 571] | – | – | – | EC50 (HIV-1; CEM cells, HIV-1): > 202 µM; EC50 (HIV-2 [1]; CEM cells, HIV-2): > 202 µM; EC50 (HIV-2 [2]; [5]): 117 µM |
| CCNP(=O)(OCC1C=CC(n2cc(C)c(=O)[nH]c2=O)O1)OCC(Cl)(Cl)Cl (stereo not drawn) [Compound 403] | > 216 µM | > 216 µM | > 218 µM | – |
| Cc1cn(C2C=CC(COP(=O)(NC(C)C(=O)OCCc3ccccc3)Oc3ccccc3)O2)c(=O)[nH]c1=O (stereo not drawn) [Compound 1220] | 0.7 µM | – | – | – |
| COC(=O)C(Cc1c[nH]c2ccccc12)NP(=O)(OC[C@@H]1C=C[C@H](n2cc(C)c(=O)[nH]c2=O)O1)Oc1ccccc1 (stereo partly drawn) [Compound 1215, 2′,3′-Dideoxy-2′,3′-didehydrothymidine-5′-(phenylmethoxytryptophanyl) phosphoramidate] | 4 µM | – | – | – |
| CC[C@H](C)[C@H](NP(=O)(OCC1C=CC(n2cc(C)c(=O)[nH]c2=O)O1)Oc1ccccc1)C(=O)OC (stereo partly drawn) [Compound 1186, 2′,3′-dideoxy-2′,3′-didehydrothymidino 5′-(phenylmethoxyisoleucinyl phosphate)] | 5 µM | – | – | – |
| Cc1cn(C2C=CC(COP(=O)(NC(C)C(=O)OCC3CCCCC3)Oc3ccccc3)O2)c(=O)[nH]c1=O (stereo not drawn) [Compound 1189] | 0.04 µM | – | – | – |
| COC(=O)CCCCCNP(=O)(OCC1C=CC(n2cc(C)c(=O)[nH]c2=O)O1)Oc1ccccc1 (stereo not drawn) [Compound 1199, 2′,3′-Dideoxy-2′,3′-didehydrothymidine-5′-(phenylmethoxy-6-aminocaproyl) phosphate] | > 250 µM | – | – | – |
| Cc1cn(C2C=CC(COP(=O)(O)NCCC(=O)O)O2)c(=O)[nH]c1=O (stereo not drawn) [Compound 1216, 2′,3′-Dideoxy-2′,3′-didehydrothymidine-5′-(β-alaninyl) phosphate ammonium salt] | 0.7 µM | – | – | – |
| CCCCCCNP(=O)(OCC1OC(n2cc(C)c(=O)[nH]c2=O)CC1N=[N+]=[N-])Oc1ccccc1 (stereo not drawn) [Cpd 657] | – | – | – | EC50 (HIV-1; CEM cells, HIV-1): > 40 µM; EC50 (HIV-2 [1]; CEM cells, HIV-2): > 40 µM; EC50 (HIV-2 [2]; [5]): > 18 µM |
| COC(=O)C[C@H](NP(=O)(OC[C@@H]1C=C[C@H](n2cc(C)c(=O)[nH]c2=O)O1)Oc1ccccc1)C(=O)OC (stereo partly drawn) [Compound 1214, 2′,3′-Dideoxy-2′,3′-didehydrothymidine-5′-(phenyldimethoxyasparaginyl) phosphoramidate] | 0.6 µM | – | – | – |
| COC(=O)C(NP(=O)(OCC1C=CC(n2cc(C)c(=O)[nH]c2=O)O1)OCC(Cl)(Cl)Cl)C(C)C (stereo not drawn) [Compound 322] | 29 µM | 71 µM | 59 µM | – |
| CCCCCC(=O)OP(=O)(O)OC[C@@H]1C=C[C@H](n2cc(C)c(=O)[nH]c2=O)O1 [Compound 1217, 2′,3′-Dideoxy-2′,3′-didehydrothymidine-5′-(caproyl) phosphate ammonium salt] | 1.4 µM | – | – | – |
